Several values for one entry are separate records, joined by “and”; a condition that tells them apart may be missing. Equal values may be shown once. Inconclusive results and toxic doses are left out.
System: BDF1 mice, P388 leukemia ip, median survival T/C
Test: NCI In Vivo Anticancer Drug Screen. Data for tumor model P388 Leukemia (intraperitoneal) in B6D2F1 (BDF1) mice
Conditions: endpoint: median survival time, higher = longer survival
In short: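 Each value expresses how treatment altered survival: treated-mouse outcome over vehicle-mouse outcome, both groups bearing the transplanted tumour.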

[1] = dose: 100.0 mg/kg/injection, schedule: Q01DX009 (ip), vehicle: saline with Tween-80
[2] = dose: 200.0 mg/kg/injection, schedule: Q01DX009 (ip), vehicle: saline with Tween-80
[3] = dose: 50.0 mg/kg/injection, schedule: Q01DX009 (ip), vehicle: saline with Tween-80

## COc1cc2c(cc1C(C)C)CCC1C(C)(C#N)CCCC21C (configuration not stated)
[1]
  T/C: 110 % of control
[2]
  T/C: 110 % of control
dose: 400.0 mg/kg/injection, schedule: Q01DX009 (ip), vehicle: saline with Tween-80
  T/C: 95 % of control

## Cc1[nH]nc(-c2ccon2)c1N
[3]
  T/C: 115 % of control
[1]
  T/C: 119 % of control
[2]
  T/C: 113 % of control

## Cc1ncc(/C=C/C(=O)O)c(C=O)c1O
dose: 6.25 mg/kg/injection, schedule: Q04DX003 (ip), vehicle: saline
  T/C: 103 % of control
dose: 12.5 mg/kg/injection, schedule: Q04DX003 (ip), vehicle: saline
  T/C: 101 % of control
dose: 25.0 mg/kg/injection, schedule: Q04DX003 (ip), vehicle: saline
  T/C: 100 % of control

## Cc1cc(O)c(C(c2ccccn2)c2c(O)cc(C)[nH]c2=O)c(=O)[nH]1
dose: 12.5 mg/kg/injection, schedule: Q01DX009 (ip), vehicle: saline with Tween-80
  T/C: 95 % of control
dose: 25.0 mg/kg/injection, schedule: Q01DX009 (ip), vehicle: saline with Tween-80
  T/C: 90 % of control
[3]
  T/C: 100 % of control

## Cc1cc2c(C(C)C)c(O)c(O)c(C=O)c2c(O)c1-c1c(C)cc2c(C(C)C)c(O)c(O)c(C=O)c2c1O
dose: 1.25 mg/kg/injection, schedule: Q01DX009 (ip), vehicle: saline with Tween-80
  T/C: 124 % of control
dose: 2.5 mg/kg/injection, schedule: Q01DX009 (ip), vehicle: saline with Tween-80
  T/C: 120 % of control

## CCOC(=O)C(=CN1CCOCC1)C(=O)OCC
dose: 100.0 mg/kg/injection, schedule: Q04DX003 (ip), vehicle: saline with Tween-80
  T/C: 100 % of control
dose: 200.0 mg/kg/injection, schedule: Q04DX003 (ip), vehicle: saline with Tween-80
  T/C: 100 % of control
dose: 400.0 mg/kg/injection, schedule: Q04DX003 (ip), vehicle: saline with Tween-80
  T/C: 109 % of control

## O=C1C(N2CC2)=C(N2CC2)C(=O)C(N2CC2)=C1N1CC1
dose: 0.02 mg/kg/injection, schedule: Q01DX009 (ip), vehicle: saline
  T/C: 232 % of control and 307 % of control
dose: 0.04 mg/kg/injection, schedule: Q01DX009 (ip), vehicle: saline
  T/C: 201 % of control
dose: 0.04 mg/kg/injection, schedule: Q04DX003 (ip), vehicle: saline with Tween-80
  T/C: 114 % of control
dose: 0.06 mg/kg/injection, schedule: Q04DX003 (ip), vehicle: saline with Tween-80
  T/C: 118 % of control
dose: 0.07 mg/kg/injection, schedule: Q04DX003 (ip), vehicle: saline with Tween-80
  T/C: 109 % of control
dose: 0.08 mg/kg/injection, schedule: Q01DX009 (ip), vehicle: saline
  T/C: 109 % of control
dose: 0.11 mg/kg/injection, schedule: Q04DX003 (ip), vehicle: other
  T/C: 200 % of control
dose: 0.15 mg/kg/injection, schedule: Q04DX003 (ip), vehicle: saline with Tween-80
  T/C: 185 % of control
dose: 0.25 mg/kg/injection, schedule: Q04DX003 (ip), vehicle: other
  T/C: 186 % of control
dose: 0.25 mg/kg/injection, schedule: Q04DX003 (ip), vehicle: saline with Tween-80
  T/C: 163 % of control
dose: 6.6 micrograms/kg/injection, schedule: Q01DX009 (ip), vehicle: saline with Tween-80
  T/C: 150 % of control
dose: 10.0 micrograms/kg/injection, schedule: Q01DX009 (ip), vehicle: saline with Tween-80
  T/C: 175 % of control
dose: 20.0 micrograms/kg/injection, schedule: Q01DX009 (ip), vehicle: saline with Tween-80
  T/C: 164 % of control
dose: 30.0 micrograms/kg/injection, schedule: Q01DX009 (ip), vehicle: saline with Tween-80
  T/C: 164 % of control
dose: 31.3 micrograms/kg/injection, schedule: Q01DX009 (ip), vehicle: saline with Tween-80
  T/C: 156 % of control
dose: 45.0 micrograms/kg/injection, schedule: Q01DX009 (ip), vehicle: saline with Tween-80
  T/C: 268 % of control
dose: 62.5 micrograms/kg/injection, schedule: Q01DX009 (ip), vehicle: saline with Tween-80
  T/C: 87 % of control
dose: 125.0 micrograms/kg/injection, schedule: Q01DX009 (ip), vehicle: saline with Tween-80
  T/C: 86 % of control

## C[CH2][Pb]([CH2]C)([CH2]C)[O]C(=O)COc1ccccc1
dose: 0.75 mg/kg/injection, schedule: Q01DX009 (ip), vehicle: Klucel (hydroxypropylcellulose) (HPC)
  T/C: 118 % of control
dose: 0.75 mg/kg/injection, schedule: Q04DX003 (ip), vehicle: saline with Tween-80
  T/C: 107 % of control
dose: 1.5 mg/kg/injection, schedule: Q04DX003 (ip), vehicle: saline with Tween-80
  T/C: 117 % of control
dose: 1.56 mg/kg/injection, schedule: Q01DX009 (ip), vehicle: saline with Tween-80
  T/C: 115 % of control
dose: 3.9 mg/kg/injection, schedule: Q04DX003 (ip), vehicle: alcohol
  T/C: 112 % of control
dose: 6.0 mg/kg/injection, schedule: Q01DX009 (ip), vehicle: Klucel (hydroxypropylcellulose) (HPC)
  T/C: 117 % of control
dose: 6.0 mg/kg/injection, schedule: Q04DX003 (ip), vehicle: alcohol
  T/C: 120 % of control
dose: 6.25 mg/kg/injection, schedule: Q01DX009 (ip), vehicle: saline with Tween-80
  T/C: 153 % of control and 168 % of control
dose: 9.0 mg/kg/injection, schedule: Q04DX003 (ip), vehicle: alcohol
  T/C: 105 % of control
dose: 12.0 mg/kg/injection, schedule: Q04DX003 (ip), vehicle: saline with Tween-80
  T/C: 107 % of control

## CCN(/C=C/C=C(C#N)C#N)CC
[3]
  T/C: 109 % of control
[1]
  T/C: 88 % of control

Source: PubChem BioAssay AID328 (DTP/NCI, 2004)
